Experimental data as given in patent US20130217702A1 (Richter Gedeon Nyrt., priority 2010, published 2013).

Legend:
[1] = target: T1, recombinant human B1 receptors (Homo sapiens, UniProt P46663); assay: Functional assay: antagonist potency by cytosolic calcium measurement (plate reader fluorimeter) in CHO-B1 cells, agonist LysDABK; assay type: cell-based; details: CHO-B1 cells, inhibition of LysDABK (EC80)-evoked [Ca2+]i elevation; read-out: B1 func.
T1 construct: host or cells: CHO (CHO-B1)
T1 sequence (P46663 1-353): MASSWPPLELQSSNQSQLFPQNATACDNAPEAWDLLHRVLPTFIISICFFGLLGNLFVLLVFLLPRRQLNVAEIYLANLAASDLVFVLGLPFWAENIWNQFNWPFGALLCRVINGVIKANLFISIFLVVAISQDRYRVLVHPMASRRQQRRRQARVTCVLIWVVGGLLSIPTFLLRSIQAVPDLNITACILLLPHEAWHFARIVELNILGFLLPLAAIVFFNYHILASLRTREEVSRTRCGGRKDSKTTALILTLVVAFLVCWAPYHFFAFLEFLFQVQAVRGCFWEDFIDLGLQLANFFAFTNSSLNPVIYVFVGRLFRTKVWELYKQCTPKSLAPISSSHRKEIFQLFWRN
Protocol: Assessment of Antagonist Potency at B1 Receptors In Vitro by Measurement of Cytosolic Calcium Ion Concentration with a Plate Reader Fluorimeter in Cells Expressing Recombinant Human B1 Receptors
Chinese hamster ovary (CHO) cells stably expressing recombinant human B1 (CHO-B1, Euroscreen) receptors were cultured in Dulbecco's Modified Eagle's Medium (DMEM) containing 10% Fetal Calf Serum (FCS), 100 U/ml penicillin, 0.1 mg/ml streptomycin, 0.25 μg/ml amphotericin B, 1% Minimum Essential Medium Eagle (MEM), non essential amino acid solution, 600 μg/ml G418. Cells were kept at 37° C. in a humidified incubator in an atmosphere of 5% CO2/95% air and were passaged 1:4 three times a week. Cells were plated at 1.5−2.5×10^4 cell/well on standard 96-well microplates, measurements of cytosolic calcium ion concentration ([Ca^2+]i) were carried out 1-2 days after cell plating.
Measurements of [Ca^2+]i were carried out on CHO-B1 cells stably expressing human B1 receptors, respectively. Cells were grown in standard 96-well microplates and before the measurement were loaded with a fluorescent Ca^2+-sensitive dye, fluo-4/AM (2 μM): after removing the culture medium the dye was added to the cells (dissolved in assay buffer: 145 mM NaCl, 5 mM KCl, 2 mM MgCl2, 2 mM CaCl2, 10 mM HEPES, 20 mM D-glucose, 2 mM probenecid, 100 μl/well) and cells were incubated at 37° C. in a humidified incubator in an atmosphere of 5% CO2/95% air for 40-120 min. To stop dye loading cells were washed twice with assay buffer. After washing, various concentrations of the test compounds (diluted in extracellular medium from a DMSO stock solution, final DMSO concentration was <0.1%) or buffer were added to each well depending on the experimental setup. After incubation at 37° C. for 20-25 min. baseline and agonist-evoked changes of [Ca^2+]; were measured column by column with a plate reader fluorimeter (Fluoroskan Ascent, Labsystems). Excitation and detection of emission was carried out from the bottom of the plate. Filters used for Fluo-4: excitation filter 485 nm, emission filter 538 nm. The whole measurement process was performed at 37° C. and was controlled by custom software. Inhibitory potency of the test compounds was assessed by measuring the reduction in the agonist-evoked [Ca^2+]i-elevation in the presence of different concentrations of the compounds. The agonist was LysDABK for CHO-B1 cells. Agonist was applied at an EC80 concentration; the EC80-values were derived from daily determined dose-response curves. Fluorescence data were expressed as ΔF/F (fluorescence change normalized to baseline). All treatments on a single plate were measured in multiple wells. Data from all wells with the same treatment were averaged and the average values were used for analysis. Inhibitory potency of a compound at a single concentration point was expressed as percent inhibition of the control agonist response. Sigmoidal concentration-inhibition curves were fitted to the data (derived from at least three independent experiments) and IC50-values were determined as the concentration that produces half of the maximal inhibition caused by the compound.

[2] = target: T2, human recombinant bradykinin B1 receptor (Homo sapiens, UniProt P46663); assay: Human recombinant bradykinin B1 receptor competitive radioligand binding; details: hB1 expressed in CHO cells, [3H]-[Des-Arg10] Kallidin radioligand; read-out: B1 binding
T2 construct: host or cells: CHO cells, clone hB1-A5
T2 sequence (P46663 1-353): T1 sequence (P46663 1-353)
Protocol: Assessment of Ligand Binding Affinity to B1 and B2 Receptors In Vitro by Competitive Radioligand Binding Assay
Binding assays were carried out on human recombinant bradykinin) receptors (expressed in CHO cells, hB1-A5) according to the Euroscreen Technical Data Sheet (Cat.No.:ES-091). 20 μg protein/tube was incubated with [3,4-prolyl-3,4-^3H(N)]-[Des-Arg^10] Kallidin as radioligand. Non specific binding was determined in the presence of 10 μM Lys-des-Arg^9-Bradykinin. The final incubation volume was 250 μl. Samples were incubated for 15 min. at 25° C. then were rapidly vacuum filtered through GF/B filters presoaked for at least 1 h in 0.5% PEI. Radioactivity was determined by liquid scintillation spectroscopy.
The ligand displacement by the compounds was determined using a minimum of seven concentrations in triplicate, and experiments were repeated at least two times. The specific radioligand binding is defined as the difference between total binding and the non-specific binding determined in the presence of an excess of unlabelled ligand. Results are expressed as a percent inhibition of specific binding obtained in the presence of RGH-478 or reference drugs. IC50 values (i.e. concentration of compound giving 50% inhibition of specific binding) were calculated from concentration-displacement curves by sigmoidal fitting using GraphPad Prism Software 4.0. Ki values (i.e. inhibition constants) were calculated using the Cheng-Prusoff equation. KD was determined from the Scatchard plot. (Editor-in-chief: Enna, S. J. and Williams, M. Current protocols in pharmacology vol. 1. John Wiley & sons Inc., 1998)

SMILES | IC50 [1] | Ki [2]
Cc1nc(-c2c(Cl)c3ccccc3n2-c2ccc(CNC(=O)C3(NC(=O)C=Cc4ccoc4)CC3)cc2)no1 [Example 169, 1-(3-Furan-3-yl-acryloylamino)-cyclopropanecarboxylic acid 4-[3-chloro-2-(5-methyl-[1,2,4]oxadiazol-3-yl)-indol-1-yl]-benzylamide] | < 0.02 µM | < 0.02 µM
COc1cc(C(=O)NC2(C(=O)NCc3ccc(-n4c(-c5noc(C)n5)c(Cl)c5ccccc54)cc3F)CC2)on1 [Example 192, 3-Methoxy-isoxazole-5-carboxylic acid (1-{4-[3-chloro-2-(5-methyl-[1,2,4]oxadiazol-3-yl)-indol-1-yl]-2-fluoro-benzylcarbamoyl}-cyclopropyl)-amide] | < 0.02 µM | < 0.02 µM
Cn1nnc(-c2c(Cl)c3ccccc3n2-c2ccc(CNC(=O)C3(NC(=O)C(F)(F)F)CC3)cc2)n1 [Example 1, 1-(2,2,2-Trifluoro-acetylamino)-cyclopropanecarboxylic acid 4-[3-chloro-2-(2-methyl-2H-tetrazol-5-yl)-indol-1-yl]-benzylamide] | < 0.02 µM | < 0.02 µM
COc1cc(C(=O)NC2(C(=O)NCc3ccc(-n4c(-c5noc(C)n5)cc5ccccc54)cn3)CC2)on1 [Example 57, 3-Methoxy-isoxazole-5-carboxylic acid [1-({5-[2-(5-methyl-[1,2,4]oxadiazol-3-yl)-indol-1-yl]-pyridin-2-ylmethyl}-carbamoyl)-cyclopropyl]-amide] | 0.02 to 0.1 µM | 0.02 to 0.1 µM
Cc1nc(-c2cc3cc(Cl)ccc3n2-c2ccc(CNC(=O)C3(NC(=O)CC(F)(F)F)CC3)cc2)no1 [Example 127, 1-(3,3,3-Trifluoro-propionylamino)-cyclopropanecarboxylic acid 4-[5-chloro-2-(5-methyl-[1,2,4]oxadiazol-3-yl)-indol-1-yl]-benzylamide] | < 0.02 µM | < 0.02 µM
COC(=O)c1cc2ccccc2n1-c1ccc(CNC(=O)C2(NC(=O)c3cc(OC)no3)CC2)cc1 [Example 14, 1-{4-[({1-[(3-Methoxy-isoxazole-5-carbonyl)-amino]-cyclopropanecarbonyl}-amino)-methyl]-phenyl}-1H-indole-2-carboxylic acid methyl ester] | < 0.02 µM | < 0.02 µM
Cc1nc(-c2c(Cl)c3cc(F)ccc3n2-c2ccc(CNC(=O)C3(NC(=O)c4ccnc(F)c4)CC3)cc2)no1 [Example 89, N-(1-{4-[3-Chloro-5-fluoro-2-(5-methyl-[1,2,4]oxadiazol-3-yl)-indol-1-yl]-benzylcarbamoyl}-cyclopropyl)-2-fluoro-isonicotinamide] | < 0.02 µM | < 0.02 µM
Cc1nc(-c2c(Cl)c3ccccc3n2-c2ccc(CNC(=O)C3(NC(=O)CC(F)(F)F)CC3)c(F)c2)no1 [Example 108, 1-(3,3,3-Trifluoro-propionylamino)-cyclopropanecarboxylic acid 4-[3-chloro-2-(5-methyl-[1,2,4]oxadiazol-3-yl)-indol-1-yl]-2-fluoro-benzylamide] | < 0.02 µM | < 0.02 µM
COc1cc(C(=O)NC2(C(=O)NCc3ccc(-n4c(-c5nnn(C)n5)c(Cl)c5ccccc54)cc3F)CC2)on1 [Example 15, 3-Methoxy-isoxazole-5-carboxylic acid (1-{4-[3-chloro-2-(2-methyl-2H-tetrazol-5-yl)-indol-1-yl]-2-fluorobenzylcarbamoyl}-cyclopropyl)-amide] | < 0.02 µM | < 0.02 µM
COc1cc(C(=O)NC2(C(=O)NCc3ccc(-n4c(-c5nc(C)no5)cc5cc(F)ccc54)cc3)CC2)on1 [Example 103, 3-Methoxy-isoxazole-5-carboxylic acid (1-{4-[5-fluoro-2-(3-methyl-[1,2,4]oxadiazol-5-yl)-indol-1-yl]-benzylcarbamoyl}-cyclopropyl)-amide] | < 0.02 µM | < 0.02 µM
COc1cc(C(=O)NC2(C(=O)NCc3ccc(-n4c(-c5nnn(C)n5)cc5ccccc54)cc3)CC2)on1 [Example 3, 3-Methoxy-isoxazole-5-carboxylic acid (1-{4-[2-(2-methyl-2H-tetrazol-5-yl)-indol-1-yl]-benzylcarbamoyl}-cyclopropyl)-amide] | < 0.02 µM | < 0.02 µM
Cc1nc(-c2c(Cl)c3cc(Cl)ccc3n2-c2ccc(CNC(=O)C3(NC(=O)C(F)(F)F)CC3)cc2)no1 [Example 65, 1-(2,2,2-Trifluoro-acetylamino)-cyclopropanecarboxylic acid 4-[3,5-dichloro-2-(5-methyl-[1,2,4]oxadiazo 1-3-yl)-indol-1-yl]-benzylamide] | < 0.02 µM | < 0.02 µM
N#Cc1cc2cc(F)ccc2n1-c1ccc(CNC(=O)C2(NC(=O)c3cncc(C(F)(F)F)c3)CC2)cc1 [Example 45, N-{1-[4-(2-Cyano-5-fluoro-indol-1-yl)-benzylcarbamoyl]-cyclopropyl}-5-trifluoromethyl-nicotinamide] | < 0.02 µM | < 0.02 µM
COc1ccc2c(c1)cc(C#N)n2-c1ccc(CNC(=O)C2(NC(=O)c3cncc(C(F)(F)F)c3)CC2)cc1 [Example 44, N-{1-[4-(2-Cyano-5-methoxy-indol-1-yl)-benzylcarbamoyl]-cyclopropyl}-5-trifluoromethyl-nicotinamide] | < 0.02 µM | < 0.02 µM
Cc1nc(-c2c(Cl)c3ccccc3n2-c2ccc(CNC(=O)C3(NC(=O)c4ccco4)CC3)cc2)no1 [Example 145, Furan-2-carboxylic acid (1-{4-[3-chloro-2-(5-methyl-[1,2,4]oxadiazol-3-yl)-indol-1-yl]-benzylcarbamoyl}-cyclopropyl)-amide] | 0.02 to 0.1 µM | 0.02 to 0.1 µM
COc1cc(C(=O)NC2(C(=O)NCc3ccc(-n4c(-c5noc(C)n5)c(Cl)c5cc(F)ccc54)cn3)CC2)on1 [Example 62, 3-Methoxy-isoxazole-5-carboxylic acid [1-({5-[3-chloro-5-fluoro-2-(5-methyl-[1,2,4]oxadiazol-3-yl)-indol-1-yl]-pyridin-2-ylmethyl}-carbamoyl)-cyclopropyl]-amide] | < 0.02 µM | < 0.02 µM
CCc1cc(C(=O)NC2(C(=O)NCc3ccc(-n4c(-c5noc(C)n5)c(Cl)c5ccccc54)cc3)CC2)on1 [Example 123, 3-Ethyl-isoxazole-5-carboxylic acid (1-{4-[3-chloro-2-(5-methyl-[1,2,4]oxadiazol-3-yl)-indol-1-yl]-benzylcarbamoyl}-cyclopropyl)-amide] | < 0.02 µM | < 0.02 µM
